Experimental data as given in patent publication US12344595B2, “2-amino-n-phenyl-nicotinamides as NAV1.8 inhibitors” (Merck Sharp & Dohme LLC, priority 2018, dated 2025).

Target: human Nav1.8 (Homo sapiens (Human), UniProt Q9Y5Y9)
Assay: Nav1.8 Qube automated patch-clamp assay
Assay type: cell-based
Conditions: Nav1.8 Qube Assay; human Nav1.8 channels stably expressed in HEK 293 cells
Description: Qube® Assay Experimental Procedure
Compounds were tested on human Nav1.8 and Nav1.5 channels stably expressed in human embryo kidney (HEK) 293 cells. Sodium current measurements on Qube® were conducted as follows: automated 384-well patch-clamp assays on the Qube® platform (Sophion Biosciences) were used to measure the inhibition of sodium flow through human Nav1.8 and Nav1.5 channels. Whole-cell voltage-clamp recordings were performed in QChips® (Sophion Biosciences) at room temperature. Nav1.8 current measurements on Qube® were obtained as follows: Nav1.8 currents were elicited with a 10 second 1 Hertz (Hz) pulse train from a holding potential of −90 millivolts (mV), delivered to the cells once per minute in the control condition (DMSO only) and after compound addition. The 1 hertz pulse train stimulation consisted of ten test pulses to 10 millivolt (mV) for 20 milliseconds (ms), each of which was followed by a 980 millisecond repolarization to −67 millivolts. At the end of the 10 second pulse train stimulation, a 5 second hyperpolarization step to −100 millivolt (mV) was used to recover Nav1.8 from fast inactivation. The peak currents elicited by the 1st and 10th test pulses were used to determine IC50 values for resting inhibition and inactivated state inhibition. Nav1.5 current measurements on Qube® were obtained as follows: Nav1.5 currents were elicited with a 20 second 3 Hertz pulse train in the control condition (DMSO only) and after compound addition. The pulse train consisted of sixty 20 millisecond test pulses to 0 millivolt from a holding potential of −80 millivolt (mV). The average peak currents elicited by the last 3 test pulses were used to determine IC50 values for Nav1.5 inhibition.
The following buffers were used for the Qube® recordings: External buffer for Nav1.8 Qube® recording: 150 NaCl, 2 CaCl2, 5 KCl, 1 Mg Cl2, 10 HEPES, 12 Dextrose; External buffer for Qube® Nav1.5 recording: 120 N-Methyl-D-Glucamine, 40 NaCl, 1 KCl, 2.7 CaCl2, 5 HEPES, 0.5 MgCl2; and Internal buffer for Qube® recording: 120 CsF, 30 CsCl, 10 EGTA, 5 HEPES, 5 NaF, 2 MgCl2.
For all Qube® experiments offline analysis was used to determine percent inhibition as a function of drug concentration. IC50 values were determined by fitting to the Hill equation.

Chain of human Nav1.8 (Q9Y5Y9 whole entry): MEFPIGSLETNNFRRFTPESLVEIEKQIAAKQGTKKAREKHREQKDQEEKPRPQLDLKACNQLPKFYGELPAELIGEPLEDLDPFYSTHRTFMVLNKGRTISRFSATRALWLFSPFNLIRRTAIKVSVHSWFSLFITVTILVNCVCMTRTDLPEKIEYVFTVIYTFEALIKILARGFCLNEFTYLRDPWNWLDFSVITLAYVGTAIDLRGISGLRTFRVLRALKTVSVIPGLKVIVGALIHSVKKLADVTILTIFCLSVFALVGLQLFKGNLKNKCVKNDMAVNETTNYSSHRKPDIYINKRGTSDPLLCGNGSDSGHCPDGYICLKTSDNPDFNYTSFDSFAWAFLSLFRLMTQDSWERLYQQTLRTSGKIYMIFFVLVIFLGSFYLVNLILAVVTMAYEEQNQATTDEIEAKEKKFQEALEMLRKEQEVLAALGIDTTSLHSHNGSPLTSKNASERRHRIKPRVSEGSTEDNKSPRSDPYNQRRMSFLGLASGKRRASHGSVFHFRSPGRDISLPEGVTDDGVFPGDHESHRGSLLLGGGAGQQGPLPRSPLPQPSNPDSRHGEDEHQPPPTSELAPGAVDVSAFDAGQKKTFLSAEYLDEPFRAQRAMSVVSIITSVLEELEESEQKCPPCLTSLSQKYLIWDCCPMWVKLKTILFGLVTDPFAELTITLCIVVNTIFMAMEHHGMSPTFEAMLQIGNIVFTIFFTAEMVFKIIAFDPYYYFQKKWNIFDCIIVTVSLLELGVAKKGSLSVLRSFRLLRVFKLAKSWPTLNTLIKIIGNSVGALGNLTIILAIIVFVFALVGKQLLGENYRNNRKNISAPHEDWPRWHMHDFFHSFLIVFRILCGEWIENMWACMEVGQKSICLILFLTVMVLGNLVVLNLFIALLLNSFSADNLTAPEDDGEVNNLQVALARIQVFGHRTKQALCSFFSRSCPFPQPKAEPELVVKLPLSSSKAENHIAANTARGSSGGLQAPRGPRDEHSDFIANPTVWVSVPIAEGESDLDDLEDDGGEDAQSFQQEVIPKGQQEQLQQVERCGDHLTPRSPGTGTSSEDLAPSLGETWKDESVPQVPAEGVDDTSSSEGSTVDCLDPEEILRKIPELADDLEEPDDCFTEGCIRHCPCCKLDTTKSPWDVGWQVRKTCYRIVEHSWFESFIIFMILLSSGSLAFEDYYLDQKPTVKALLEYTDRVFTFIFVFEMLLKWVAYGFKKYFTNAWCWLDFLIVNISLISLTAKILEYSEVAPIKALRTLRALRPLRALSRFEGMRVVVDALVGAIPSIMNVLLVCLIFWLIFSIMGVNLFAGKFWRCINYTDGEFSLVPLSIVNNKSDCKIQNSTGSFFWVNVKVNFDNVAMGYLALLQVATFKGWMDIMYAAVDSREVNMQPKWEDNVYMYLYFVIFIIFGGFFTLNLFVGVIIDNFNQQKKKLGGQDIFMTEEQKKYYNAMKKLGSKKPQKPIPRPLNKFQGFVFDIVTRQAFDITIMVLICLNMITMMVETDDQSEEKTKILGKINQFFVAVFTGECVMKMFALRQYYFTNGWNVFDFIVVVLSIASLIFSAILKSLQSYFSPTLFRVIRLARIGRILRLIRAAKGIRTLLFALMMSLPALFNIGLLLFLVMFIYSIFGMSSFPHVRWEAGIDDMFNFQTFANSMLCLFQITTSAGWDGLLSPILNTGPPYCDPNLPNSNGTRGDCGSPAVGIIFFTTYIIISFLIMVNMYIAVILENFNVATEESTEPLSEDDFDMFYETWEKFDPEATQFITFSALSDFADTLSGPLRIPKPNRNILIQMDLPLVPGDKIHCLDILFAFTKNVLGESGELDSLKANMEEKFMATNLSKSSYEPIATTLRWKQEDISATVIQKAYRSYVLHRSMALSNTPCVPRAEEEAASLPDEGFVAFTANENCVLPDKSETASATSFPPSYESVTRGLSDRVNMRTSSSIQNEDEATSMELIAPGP

| Compound | IC50 |
| --- | --- |
| Cc1cc(Cl)nc(N2CCCCCC2)c1C(=O)Nc1cccc(S(N)(=O)=O)c1 [Example 29, 2-(azepan-1-yl)-6-chloro-4-methyl-N-(3-sulfamoylphenyl)nicotinamide] | 10 nM |
| Cc1nc(N2CCC(F)(F)CC2)c(C(=O)Nc2cccc(C(N)=O)c2)c(C)c1Cl [Example 16, N-(3-carbamoyl-phenyl)-5-chloro-2-(4,4-difluoro-1-piperidyl)-4,6-dimethyl-pyridine-3-carboxamide] | 24 nM |
| NS(=O)(=O)c1cccc(NC(=O)c2cc(C(F)(F)F)cnc2N2CC3CCCC32)c1 (stereo not drawn) [Example 59, 2-(6-azabicyclo[3.2.0]heptan-6-yl)-N-(3-sulfamoyl-phenyl)-5-(trifluoro-methyl)pyridine-3-carboxamide] | 698 nM |
| NS(=O)(=O)c1cccc(NC(=O)c2cc(C(F)(F)F)cnc2N2CCCOCC2)c1 [Example 56, 2-(1,4-oxazepan-4-yl)-N-(3-sulfamoylphenyl)-5-(trifluoromethyl)-pyridine-3-carboxamide] | 448 nM |
| N#Cc1cccc(NC(=O)c2cc(C(F)(F)F)cnc2N2CCCCCC2)c1 [Example 21, 2-(azepan-1-yl)-N-(3-cyanophenyl)-5-(trifluoromethyl)pyridine-3-carboxamide] | 254 nM |
| Cc1nc(N2CCCCC2)c(C(=O)Nc2cccc(C(N)=O)c2)c(C)c1Cl [Example 19, N-(3-carbamoyl-phenyl)-5-chloro-4,6-dimethyl-2-(1-piperidyl)pyridine-3-carboxamide] | 295 nM |
| N#Cc1ccc(NC(=O)c2cc(C(F)(F)F)cnc2N2CCCCCC2)cc1 [Example 22, 2-(azepan-1-yl)-N-(4-cyanophenyl)-5-(trifluoromethyl)pyridine-3-carboxamide] | 470 nM |
| Cc1cc(Cl)nc(N2CCCC(F)(F)CC2)c1C(=O)Nc1cccc(S(C)(=O)=O)c1 [Example 8, 6-chloro-2-(4,4-difluoroazepan-1-yl)-4-methyl-N-(3-methyl-sulfonylphenyl)pyridine-3-carboxamide] | 5.8 nM |
| CC1(C)CCCN(c2ncc(C(F)(F)F)cc2C(=O)Nc2cccc(S(N)(=O)=O)c2)CC1 [Example 80, 2-(4,4-dimethylazepan-1-yl)-N-(3-sulfamoyl-phenyl)-5-(trifluoro-methyl)nicotinamide] | 11 nM |
| Cc1nc(N2CCC(F)(F)CC2)c(C(=O)Nc2cccc(C#N)c2)c(C)c1Cl [Example 20, 5-chloro-N-(3-cyanophenyl)-2-(4,4-difluoro-1-piperidyl)-4,6-dimethyl-pyridine-3-carboxamide] | 74 nM |
| CC(C)CC1CCCCCN1c1ncc(C(F)(F)F)cc1C(=O)Nc1cccc(S(N)(=O)=O)c1 (stereo not drawn) [Example 68, 2-(2-isobutylazepan-1-yl)-N-(3-sulfamoyl-phenyl)-5-(trifluoro-methyl)pyridine-3-carboxamide] | 3650 nM |
| NS(=O)(=O)c1cccc(NC(=O)c2cc(C(F)(F)F)cnc2N2CC3CCC(C2)O3)c1 [Example 57, 2-(8-oxa-3-azabicyclo[3.2.1]octan-3-yl)-N-(3-sulfamoyl-phenyl)-5-(trifluoro-methyl)pyridine-3-carboxamide] | 575 nM |
| NS(=O)(=O)c1cccc(NC(=O)c2cc(Cl)cnc2N2CCCCCC2)c1 [Example 31, 2-(azepan-1-yl)-5-chloro-N-(3-sulfamoyl-phenyl)pyridine-3-carboxamide] | 22 nM |
| Cc1cc(C(=O)Nc2cccc(S(N)(=O)=O)c2)c(N2CCCCCC2)nc1C [Example 30, 2-(azepan-1-yl)-5,6-dimethyl-N-(3-sulfamoylphenyl) pyridine-3-carboxamide] | 12 nM |
| Cc1ccc(-c2cnc(N3CCCCC3)c(C(=O)Nc3cccc(S(N)(=O)=O)c3)c2)cc1 [Example 27, 2-(piperidin-1-yl)-N-(3-sulfamoylphenyl)-5-(p-tolyl)nicotinamide] | 4430 nM |
| NS(=O)(=O)c1cccc(NC(=O)c2cc(C(F)(F)F)cnc2N2C[C@H]3C[C@@H](C2)C3(F)F)c1 [Example 132, 2-[(1R,5S)-6,6-difluoro-3-azabicyclo[3.1.1]-heptan-3-yl]-N-(3-sulfamoylphenyl)-5-(trifluoromethyl)-pyridine-3-carboxamide] | 170 nM |
| NS(=O)(=O)c1cccc(NC(=O)c2cc(C(F)(F)F)cnc2N2CCCCCC2)c1 [Example 44, 2-(azepan-1-yl)-N-(3-sulfamoylphenyl)-5-(trifluoromethyl)-pyridine-3-carboxamide] | 9.5 nM |
| NC(=O)c1cccc(NC(=O)c2cc(Cl)cnc2N2CCCC(F)(F)CC2)c1 [Example 15, N-(3-carbamoyl-phenyl)-5-chloro-2-(4,4-difluoroazepan-1-yl)pyridine-3-carboxamide] | 19 nM |
| COC1CCCN(c2ncc(C(F)(F)F)cc2C(=O)Nc2cccc(S(N)(=O)=O)c2)CC1 (stereo not drawn) [Example 49, 2-(4-methoxyazepan-1-yl)-N-(3-sulfamoyl-phenyl)-5-(trifluoro-methyl)pyridine-3-carboxamide] | 186 nM |

Results, then the molecule that gave them:

| IC50 | Compound |
| --- | --- |
| 1150 nM | C[C@@H]1CN(c2ncc(C(F)(F)F)cc2C(=O)Nc2cccc(S(N)(=O)=O)c2)C[C@H](C(F)(F)F)O1 [Example 142, 2-[(2R,6R)-2-methyl-6-(trifluoromethyl)morpholin-4-yl]-N-(3-sulfamoylphenyl)-5-(trifluoromethyl)-pyridine-3-carboxamide] |
| 3000 nM | NS(=O)(=O)c1ccc(F)c(NC(=O)c2cc(C(F)(F)F)cnc2N2CCCCC2)c1 [Example 116, N-(2-fluoro-5-sulfamoyl-phenyl)-2-(1-piperidyl)-5-(tri-fluoromethyl)pyridine-3-carboxamide] |
| 502 nM | NS(=O)(=O)c1cccc(NC(=O)c2cc(C(F)(F)F)cnc2N2CCCO[C@@H](C(F)(F)F)C2)c1 [Example 144, (R)—N-(3-sulfamoylphenyl)-5-(trifluoromethyl)-2-(2-(trifluoromethyl)-1,4-oxazepan-4-yl) nicotinamide] |
| 260 nM | CS(=O)(=O)c1cccc(NC(=O)c2cc(C(F)(F)F)cnc2N2CCC3(CC3)C(F)(F)C2)c1 [Example 101, 2-(8,8-difluoro-6-azaspiro[2.5]octan-6-yl)-N-(3-methyl-sulfonylphenyl)-5-(trifluoromethyl) pyridine-3-carboxamide] |
| 189 nM | O=C(Nc1ccc2c(c1)S(=O)(=O)NC2)c1cc(C(F)(F)F)cnc1N1CCCCCC1 [Example 121, 2-(azepan-1-yl)-N-(1,1-dioxo-2,3-dihydro-1,2-benzothiazol-6-yl)-5-(trifluoromethyl)-pyridine-3-carboxamide] |
| 2240 nM | CC(C)Cc1cnc(N2CCCCC2)c(C(=O)Nc2cccc(S(N)(=O)=O)c2)c1 [Example 153, 5-isobutyl-2-(piperidin-1-yl)-N-(3-sulfamoylphenyl)nicotinamide] |
| 32 nM | NS(=O)(=O)c1cccc(NC(=O)c2cc(C(F)(F)F)cnc2N2CCCO[C@H](C(F)(F)F)C2)c1 [Example 147, N-(3-sulfamoylphenyl)-5-(trifluoromethyl)-2-[(2S)-2-(trifluoro-methyl)-1,4-oxazepan-4-yl]pyridine-3-carboxamide] |
| 25 nM | NS(=O)(=O)c1cccc(NC(=O)c2cc(C(F)(F)F)cnc2N2C[C@H]3CC[C@H]3C2)c1 [Example 134, 2-((1R,5S)-3-azabicyclo[3.2.0]heptan-3-yl]-N-(3-sulfamoyl-phenyl)-5-(trifluoro-methyl)-pyridine-3-carboxamide] |
